Data as given in patent US8956445B2, “High stability diionic liquid salts” (Sigma-Aldrich Co., priority 2004, dated 2015).

Tests used:
[1] = Solvation interaction parameters by inverse gas-liquid chromatography (Abraham solvation model); type: physicochemical
Description: The preparation of the capillary columns for inverse gas-liquid chromatographic analysis was performed using a previously described procedure.^31 All capillary columns had efficiencies between 2100 to 2500 plates/meter. Characterization of the capillary columns and probe molecule descriptions are listed in supplemental information. Multiple linear regression analysis (MLRA) and statistical calculations were performed using the program Analyse-it (Microsoft, USA).
We have previously reported that the Abraham solvation model, a linear free energy approach that utilizes inverse gas-liquid chromatography to describe the solvation properties of a liquid, can be used to characterize room temperature ionic liquids.^31 Described by equation 1, the model provides the so-called “interaction parameters” (r, s, a, b, l) by using multiple linear regression analysis to fit the retention factor (k, determined chromatographically) to the solute descriptors (R2, π2^H, α2^H, β2^H, log L^16) for a wide variety of probe solute molecules. […] The solvation properties of four dicationic ionic liquids (see Table 4) were evaluated and the interaction parameters compared to those obtained for their traditional monocationic analogues 1-butyl-3-methylimidazolium and 1-butyl-1-methylpyrrolidinium ionic liquids.
Previously we characterized a large number of room temperature ionic liquids in terms of multiple solvation interactions using the solvation parameter model, shown in equation 3.^44 log k=c+rR2+sπ2^H+aα2^H+bβ2^H+l log L^16 [3] This approach utilizes inverse gas-liquid chromatography and allows the use of a large number of probe molecules to deconvolute solute retention in terms of the type and magnitude of individual solvation interactions. The solute descriptors (R2, π2^H, α2^H, β2^H, log L^16) from Equation 3 are obtained from the literature for many probe molecules containing a variety of functional groups.^45 The retention factor is determined chromatographically. The solute descriptors and retention factors are subjected to multiple linear regression analysis to obtain the interaction parameter coefficients (r, s, a, b, l), which ultimately characterize the stationary phase: r is the ability of the diionic liquid containing-stationary phase to interact with π and n electrons of the solute, s is a measure of the dipolarity/polarizability of the diionic liquid containing-stationary phase, a defines the diionic liquid containing-stationary phase hydrogen bond basicity, b is a measure of the hydrogen bond acidity, and/refers to the ability of the diionic liquid containing-stationary phase to separate adjacent members of a homologous series.^46
Test solutes used to determine interaction parameters and solvation thermodynamics were dissolved in dichloromethane. A Hewlett-Packard model 5890 gas chromatograph and a Hewlett-Packard 6890 series integrator were used for all separations. Split injection and flame ionization detection were utilized with injection and detection temperatures of 250° C. Helium was used as the carrier gas with a column inlet pressure of 3.1 psi and flow rate of 1.0 mL/min. Methane was used to determine the dead volume of the column. Multiple linear regression analysis and statistical calculations were performed using the program Analyze-it (Microsoft).

Row | Structure (SMILES) | Miscibility with Heptane | Miscibility with Water | other results
1 | Cn1cc[n+](CCCCCCCCC[n+]2ccn(C)c2)c1.F[P-](F)(F)(F)(F)F.F[P-](F)(F)(F)(F)F [C9(mim)2-PF6, 1,9-di(3-methylimidazolium)nonane di-hexafluorophosphate] | Immiscible | Immiscible | 
2 | C[n+]1ccn(CCCCCCn2cc[n+](C)c2)c1.F[P-](F)(F)(F)(F)F.F[P-](F)(F)(F)(F)F [C6(mim)2-PF6, 1,6-di(3-methylimidazolium)hexane di-hexafluorophosphate] | Immiscible | Immiscible | 
3 | C[n+]1ccn(CCCCCCn2cc[n+](C)c2)c1.F[B-](F)(F)F.F[B-](F)(F)F [C6(mim)2-BF4, 1,6-di(3-methylimidazolium)hexane di-tetrafluoroborate] | Immiscible | Miscible | 
4 | Cc1n(C)cc[n+]1CCCCCCCCC[n+]1ccn(C)c1C.F[P-](F)(F)(F)(F)F.F[P-](F)(F)(F)(F)F [C9(m2im)2-PF6, 1,9-di(2,3-dimethylimidazolium)nonane di-hexafluorophosphate] | Immiscible | Immiscible | 
5 | CCCC[N+]1(CCCCCCCCC[N+]2(CCCC)CCCC2)CCCC1.F[P-](F)(F)(F)(F)F.F[P-](F)(F)(F)(F)F [C9(bpy)2-PF6, 1,9-di(butylpyrrolidinium)nonane di-hexafluorophosphate] | Immiscible | Immiscible | 
6 | Cc1n(C)cc[n+]1CCCCCCCCC[n+]1ccn(C)c1C.[Br-].[Br-] [C9(m2im)2-Br, 1,9-di(2,3-dimethylimidazolium)nonane di-bromide] | Immiscible | Miscible | 
7 | Cc1n(C)cc[n+]1CCC[n+]1ccn(C)c1C.[Br-].[Br-] [C3(m2im)2-Br, 1,3-di(2,3-dimethylimidaolium)propane di-bromide] | Immiscible | Miscible | 
8 | Cc1n(C)cc[n+]1CCC[n+]1ccn(C)c1C.O=S(=O)([N-]S(=O)(=O)C(F)(F)F)C(F)(F)F.O=S(=O)([N-]S(=O)(=O)C(F)(F)F)C(F)(F)F [C3(m2im)2-NTf2, 1,3-di(2,3-dimethylimidazolium)propane di-bis[(trifluoromethyl)sulfonyl]imidate] | Immiscible | Immiscible | 
9 | Cc1n(C)cc[n+]1CCC[n+]1ccn(C)c1C.F[P-](F)(F)(F)(F)F.F[P-](F)(F)(F)(F)F [C3(m2im)2-PF6, 1,3-di(2,3-dimethylimidazolium)propane di-hexafluorophosphate] | Immiscible | Immiscible | 
10 | C[N+]1(CCCCCCCCC[N+]2(C)CCCC2)CCCC1.F[P-](F)(F)(F)(F)F.F[P-](F)(F)(F)(F)F [C9(mpy)2-PF6, 1,9-di(methylpyrrolidinium)nonane di-hexafluorophosphate] | Immiscible | Immiscible | 
11 | C[n+]1ccn(CCCCn2cc[n+](C)c2)c1.O=S(=O)([N-]S(=O)(=O)C(F)(F)F)C(F)(F)F.O=S(=O)([N-]S(=O)(=O)C(F)(F)F)C(F)(F)F [C4(mim)2-NTf2] |  |  | a (hydrogen bond basicity) ([1]; 40° C.): 2.11; b (hydrogen bond acidity) ([1]; 40° C.): 0.50; c (interaction parameter table, constant) ([1]; 40° C.): −2.94; l (dispersion forces) ([1]; 40° C.): 0.56; r (interaction via nonbonding and π-electrons) ([1]; 40° C.): 0.25; s (dipolarity/polarizability) ([1]; 40° C.): 2.01; a (hydrogen bond basicity) ([1]; 70° C.): 1.77; b (hydrogen bond acidity) ([1]; 70° C.): 0.45; c (interaction parameter table, constant) ([1]; 70° C.): −2.91; l (dispersion forces) ([1]; 70° C.): 0.44; r (interaction via nonbonding and π-electrons) ([1]; 70° C.): 0.22; s (dipolarity/polarizability) ([1]; 70° C.): 1.78; a (hydrogen bond basicity) ([1]; 100° C.): 1.57; b (hydrogen bond acidity) ([1]; 100° C.): 0.33; c (interaction parameter table, constant) ([1]; 100° C.): −3.06; l (dispersion forces) ([1]; 100° C.): 0.37; r (interaction via nonbonding and π-electrons) ([1]; 100° C.): 0.20; s (dipolarity/polarizability) ([1]; 100° C.): 1.69
